Measurements from patent publication US20050221359A1, “Cospeptin, cosmedin and their uses” (The Board of Trustees of the Leland Stanford Junior …, priority 2004, published 2005).
Entries after “also recorded” stand apart in the source; their conditions may differ.

Tests used:
[1] = test system: normal Sprague-Dawley rats; test: Effects of cospeptin on blood pressure and heart rate (tail-cuff method); type: in vivo, rat; conditions: intraperitoneal administration, conscious normal rats
Procedure: Effects of cospeptin on blood pressure and heart rate in normal […] rats. Blood pressure measurements in conscious male Sprague-Dawley rats (7-9 weeks of age) were made in animals preadapted to the measurement procedure. Indirect systolic pressure was determined by a programmable NIBP system using the tail-cuff method (Columbus Instruments, Columbus, Ohio). Following attachment of the pressure transducer, rats were left undisturbed for 10 min before baseline measurements that spanned a 15-min interval. Following baseline measurements, rats were injected intraperitoneally with varying doses of hormones. Blood pressure and heart rate were monitored for 50 min at 25-sec intervals. Changes in blood pressure were calculated as the average of thirty measurements performed within each 5-min interval.

[2] = test system: cospeptin receptors in the pituitary; test: Displacement of 125I-Tyr0-cospeptin E binding in pituitary (competition studies); parameters: species or system rat; conditions: competition with 125I-Tyr0-cospeptin E
Procedure: (§1) Radiolabeling of cospeptin. Peptide iodination was performed according to the IODO-GEN procedure (Pierce, Upland, Ind.). The mixture of Tyr0-cospeptin E (20 μg) and 1 mCi [^125I] Nal was transferred to precoated IODO-GEN vials before incubation at room temperature for 4 min. The ^125I-labeled peptide was applied to a Sep-Pak C18 cartridge (Waters, Milford, Mass.) for purification and was eluted with 60% acetonitrile/0.1%TFA. The purified tracer was stored at −20° C.
(§2) Receptor binding experiments. Homogenates were prepared from different tissues of adult rats. Binding assays were performed in glass tubes. Routinely, tissue homogenates were incubated in 100 μl of binding buffer (PBS with 0.1% bovine serum albumin) for 16 h at room temperature with varying concentrations of ^125I-Tyr0-cospeptin E (100, 000 cpm˜2 nM) in the presence or absence of unlabelled Tyr0-cospeptin E (in 5,000 fold excess). After incubation, the tubes were centrifuged for 10 min at 10,000×g, and the pellet was washed twice in ice-cold PBS. Finally, Tyr0-cospeptin E bound to the tissues was counted using a gamma-spectrophotometer. Specifically bound counts were calculated by subtracting unspecific counts determined in the presence of 5,000-fold excess of nonlabeled peptide from total counts bound to the tissues. For displacement ^125I-Tyr0-cospeptin E binding, increasing concentrations of Tyr0-cospeptin E or other peptides or analogues (cospeptin E, cospeptin A, cospeptin B, cospeptin D, cospeptin F or cosmedin B) were added.

[3] = molecular target: cospeptin E receptor in pituitary tissues; test: Saturation binding of 125I-Tyr0-cospeptin E to pituitary homogenate; conditions: saturation curve, rat pituitary gland
Procedure: as §1
as §2, with “For displacement ^125I-Tyr0-cospeptin E binding, increasing concentrations of Tyr0-cospeptin E or other peptides or analogues (cospeptin E, cospeptin A, cospeptin B, cospeptin D, cospeptin F or cosmedin B) were added.” left out

C57/BL6 male mice = test: Effects of peptides on gastric emptying activity; type: in vivo, mouse; conditions: intraperitoneal injection, fed mice, stomach weighed after treatment
Procedure: Effects of peptides on gastric emptying activity Eight-week-old C57/BL6 male mice deprived of food for 20 h were given food pellets for 90 min before intraperitoneal injection with different hormones or saline. After treatment, mice were deprived of food again and killed 90 min later. The stomach was excised at the pylorus and cardia before weighing. Gastric emptying was calculated by comparing the stomach weight of treated mice to the stomach weight of control mice killed at the time of hormone injection. The rates of gastric emptying were calculated by the formula (wet weight of stomach in fed animals killed at 0 h minus wet weight at […] after treatment/wet weight of stomach in fed animals killed at 0 h)×100.

rat ileal tissue strips = test: Ileum contraction assay (organ bath, ileal muscle strips); conditions: for muscle contraction of ileal strips: cumulative concentrations 10 nM to 10 μM; for magnitude of contraction relative to maximum response to muscarinic agonist 5-methylfurmethide: normalised to 5-methylfurmethide maximum
Procedure: Ileum contraction assay. Female rats (˜350 g) were euthanized with CO2 and the abdominal cavity was opened to expose the intestines. A 3-cm length of ileum was removed, cleared of any adhering tissue and longitudinal strips of ileal muscle (2×5 mm) were cut. On average, six preparations were obtained from each animal. The tissues were suspended in 20-ml organ baths containing Krebs-Henseleit solution maintained at 32° C. containing 2.5 mM Ca^2+ and gassed continuously with 95% O2/5% CO2. The tissues were placed under a loading tension of 1 g. The tissue was equilibrated for 90 min after which a dose response curve of the peptide of interest was obtained at 0.5 log unit cumulative incremental concentrations from 10 nM to 10 μM.

Row | Substance | blood pressure [1] | heart rate [1] | order of affinity to the cospeptin receptors [2] | gastric emptying activity (C57/BL6 male mice) | other results
1 | human cospeptin Form E, SEQ ID NO: 10, AGIVQEDVQPPGLKVWSDPFG [cospeptin E] | suppressed blood pressure | decreased heart rate | cospeptin E=Tyr0-cospeptin E>cospeptin A,B>>cospeptin F>>cosmedin |  | Kd [3]: 5 nM
2 | cospeptin B: human cospeptin Form B, SEQ ID NO: 7, PLMRLEEYKKEQAINRAGIVQEDVQPPGLKVWSDPFG (KRNWTPQAMLYLKGAQGRRFLSDQSRRK) | suppressed blood pressure |  | cospeptin E=Tyr0-cospeptin E>cospeptin A,B>>cospeptin F>>cosmedin | exhibited gastric emptying activities; also recorded: effectively inhibits gastric emptying | 
3 | cospeptin F: human cospeptin Form F, SEQ ID NO: 11, VWSDPFG (FYPIYFRPLLRLEEYQKEQAVNRAGIVQEDVQPPGLKVWSDPFGRK; rat) |  |  | cospeptin E=Tyr0-cospeptin E>cospeptin A,B>>cospeptin F>>cosmedin |  | 
4 | cospeptin A: human cospeptin Form A, SEQ ID NO: 6, FYPIYFRPLMRLEEYKKEQAINRAGIVQEDVQPPGLKVWSDPFG (KRNWTPQAMLYLKGAQGHRFISDQSRRK) | minimal effects | decreased heart rate | cospeptin E=Tyr0-cospeptin E>cospeptin A,B>>cospeptin F>>cosmedin |  | 
5 | human cosmedin Form B, SEQ ID NO: 4, NWTPQAMLYLKGAQG; presumed amidated at carboxyl terminus [cosmedin B] |  |  | cospeptin E=Tyr0-cospeptin E>cospeptin A,B>>cospeptin F>>cosmedin | effectively inhibits gastric emptying | muscle contraction of ileal strips (rat ileal tissue strips): concentration dependent muscle contraction; muscle contraction of ileal strips (rat ileal tissue strips; listed as cosmedin-B): produced a concentration-dependent muscle contraction; also recorded: direct action of cosmedin-B on muscle contraction; magnitude of contraction relative to maximum response to muscarinic agonist 5-methylfurmethide (rat ileal tissue strips): comparable to that of the acetylcholine muscarinic receptor agonist 5-methylfurmethide; magnitude of contraction relative to maximum response to muscarinic agonist 5-methylfurmethide (rat ileal tissue strips; listed as cosmedin-B): comparable to that mediated by the muscarinic receptor stimulation; potency pA50 (rat ileal tissue strips; rat ileal tissue strips): 6.05±0.17; gastric emptying activity (C57/BL6 male mice; listed as cosmedin-B): suppressed gastric emptying activity in a dose-dependent manner
